Test results reported in ChEMBL document CHEMBL1152925, “Vladimuliecins A and B: cytotoxic pentacyclic pregnanols from Vladimiria muliensis” (J Nat Prod, 2009).

Assays:
Format in all cases: functional, cell-based
HeLa = test: Cytotoxicity against human HeLa cells after 48 hrs by SRB assay
HL-60 = test: Cytotoxicity against human HL60 cells after 48 hrs by SRB assay
SMMC-7721 = test: Cytotoxicity against human SMMC7721 cells after 48 hrs by SRB assay
[1] = Homo sapiens, HL-60, 48 h, read-out: IC50
[2] = Homo sapiens, SMMC-7721, 48 h, read-out: IC50

Structure (SMILES): C[C@@H](O)[C@H]1CC[C@@]2(O)[C@]1(C)CC[C@@H]1[C@@]3(C)CC[C@@H]4C[C@@]43[C@H](O)C[C@]12O
- IC50 (HeLa; hela): 165 µM
- IC50 (HL-60; hl-60): 138 µM
- IC50 (SMMC-7721; smmc-7721): 101 µM

Structure (SMILES): CO[C@@]12[C@H](COC(N)=O)C3=C(C(=O)C(C)=C(N)C3=O)N1C[C@@H]1N[C@@H]12 [MITOMYCIN]
- IC50 (HeLa; Homo sapiens, HeLa, 48 h, read-out: IC50): 3.3 µM
- IC50 (HL-60; [1]): 1.5 µM
- IC50 (SMMC-7721; [2]): 5.4 µM

Structure (SMILES): CC(=O)O[C@H](C)[C@H]1CC[C@@]2(O)[C@]1(C)CC[C@@H]1[C@@]3(C)CC[C@@H]4C[C@@]43[C@H](OC(C)=O)C[C@]12O [VLADIMULIECIN A]
- IC50 (HeLa; hela): 167 µM
- IC50 (HL-60; [1]): 99 µM
- IC50 (SMMC-7721; [2]): 98.6 µM

Structure (SMILES): CC(=O)O[C@H](C)[C@H]1CC[C@@]2(O)[C@]1(C)CC[C@@H]1[C@@]3(C)CC[C@@H]4C[C@@]43[C@H](O)C[C@]12O [VLADIMULIECIN B]
- IC50 (HeLa; hela): 121 µM
- IC50 (HL-60; [1]): 88 µM
- IC50 (SMMC-7721; smmc-7721): 104 µM
